Patent publication US20030022864A1, “9-[(5-dihydroxyboryl)-pentyl] purines, useful as an inhibitor of inflammatory cytokines” (priority 2001, published 2003)
Each block holds one compound with its values, some of them ahead of it.

Tests used:
[1] = system: rats with permanent occlusion of the middle cerebral artery; settings: systemic administration, 10 mg/kg 1 hour post ischemia; compared with vehicle controls; cited from earlier work
[2] = system: TNF-α production by human monocytes; experiment: Assay for inhibition of TNF-α production by human monocytes; format: cell-based; settings: 100 ng/ml LPS, 16 hours, ELISA, read-out: IC50 Against TNF-α
Procedure: Assay for inhibition of TNF-α production by human monocytes
Monocytes were prepared by centrifugal counterflow elutriation from PBMC obtained from leukophoresis of normal volunteers (leukopaks) at the Phoresis laboratory located at Duke University Hospital, Durham, N.C., United States of America. PBMC from leukopaks were diluted in sterile isotonic saline/10 mM HEPES (N-[2-Hydroxyethyl]piperazine-N′-[2-ethanesulfonic acid]), the name of a buffer used in biological and protein chemistry) and placed into 50 ml conical polypropylene tubes in 30 ml aliquots. Each aliquot of diluted PBMC is underlaid with 20-25 ml of sterile lymphocyte separation medium (LSM; Organon-Technika, Durham, N.C., United States of America). The tubes were centrifuged at 400× gravity for 40 minutes at room temperature. The mononuclear cells at the interface were resuspended in phosphate buffered saline (PBS) and then separated, using a Beckman elutriator, into lymphocytes and monocytes. Yields of 10^9 monocytes with greater than 90% purity were routinely obtained.
Purified monocytes prepared as described above were suspended at 4×10^6 cells/ml in complete medium. Complete medium is defined as follows: RPMI-1640 supplemented with 100 U/ml penicillin; 100 μg/ml streptomycin; 2 mM L-glutamine; 1 mM Na pyruvate; 1% MEM non-essential amino acids; 25 mM HEPES (all from GIBCO, Gaithersburg, Md., United States of America); and 5% pooled, heat-inactivated (56° C., 30 minutes) human serum from type AB blood (Pel-Freez, Brown Deer, Wis., United States of America). To each well of a 48-well flat bottomed tissue culture plate was added 0.125 ml of cell suspension. Test materials (diluted in complete medium at 2× the desired final concentration) were added in […] to each well. Control wells received 250 μl of complete medium. All samples were tested at a minimum of 4 concentrations in the presence or absence of 100 ng/ml LPS (S. typhosa; Sigma, St. Louis, Mo., United States of America; 125 μl of 4× desired final concentration added) and incubated at 37° C. in humidified 5% CO2 for 16 hours. At this time, culture supernatants were aspirated off and the unattached cells and cell debris removed by a 2 minute spin in a microcentrifuge at 10,000× gravity. The release of TNF-α was determined in the cell-free supernatants using an ELISA capture assay.

[3] = system: TNF-α production by murine macrophage cell line J774.1; experiment: Inhibition of TNF-α production by a murine macrophage cell line (J774.1); format: cell-based; settings: FIG. 1; read-out: IC50, production of TNF-α by cultured murine macrophage cell line
Procedure: (§1) Assay for inhibition of TNF-α or nitric oxide (NO) by a murine macrophage cell line
(§2) Murine macrophage cell line J774.1 cells were maintained by culture at 37° C. in 5% humidified CO2 in media that was […] (DMEM) supplemented with 100 U/ml penicillin; 100 μg/ml streptomycin; 2 mM L-glutamine; 1 mM Na pyruvate; 1% MEM non-essential amino acids; 25 mM HEPES (all from GIBCO, Gaithersburg, Md., United States of America); and 10% pooled, heat-inactivated (56° C., 30 minutes) fetal bovine serum (FBS; GIBCO). For assays of TNF-α and nitric oxide production, cells were cultured at 1×10^5 cells/well in 96-well tissue culture plates. Test compound was prepared as a stock solution in DMSO and added to each well to give the desired final concentration. DMSO was added to control wells to serve as a vehicle control. Each concentration of test material or vehicle control was tested in replicates of 4 wells. After a 1 hour exposure to test material, a stimulus (either SAK2 stimulatory oligonucleotide [10 μg] or LPS [10 ng/ml]+IFNγ[100 u/ml]) was added to each well, and the plates incubated for 48 hours at 37° C. in 5% humidified CO2. […] Content of nitrite/nitrate in J774.1 cell culture supernatants was expressed as μM.

[4] = system: nitric oxide production by murine macrophage cell line J774.1; experiment: Nitric oxide production by a murine macrophage cell line (J774.1), nitrate/nitrite by Griess reagent; format: cell-based; settings: FIG. 2
Procedure: as §1, §2

mRNA encoding for CCR1 = experiment: Expression of C-C chemokine receptor mRNA in normal human PBMC by RT-PCR: CCR1; format: cell-based; settings: FIG. 6
Procedure: (§3) The ability of LMP-420 to affect the expression of C-C chemokine receptors on normal human PBMC was tested as illustrated in FIG. 6. […] There was no effect on CCR4, the only other C-C chemokine receptor whose mRNA could be detected in these unstimulated human PBMC. Also, there was no effect on the mRNA for GAPDH which is used as a “housekeeping gene” to verify that equal amounts of mRNA are being reversed transcribed for the analysis. Thus, the ability of LMP-420 to inhibit the expression of CCR1 might contribute to antiinflammatory properties of LMP-420, as well as its ability to inhibit HIV-1 replication.

CCR4 mRNA = experiment: Expression of C-C chemokine receptor mRNA in normal human PBMC by RT-PCR: CCR4; format: cell-based; settings: unstimulated human PBMC, FIG. 6
Procedure: as §3

mRNA for GAPDH = experiment: Housekeeping gene mRNA in normal human PBMC by RT-PCR: GAPDH; format: cell-based; settings: FIG. 6
Procedure: as §3

[5] = 400 mg 3 times daily, 6 months; placebo 26.8%, p=0.04; cited from earlier work
[6] = biological target: T1, biologically-active TNF-α (Homo sapiens, UniProt P01375); settings: heart failure patients; cited from earlier work
T1 construct: host or cells: serum of heart-failure patients

[7] = cited from earlier work
[8] = two weeks after a single infusion; cited from earlier work

T1 sequence (P01375 77-233 limits assumed): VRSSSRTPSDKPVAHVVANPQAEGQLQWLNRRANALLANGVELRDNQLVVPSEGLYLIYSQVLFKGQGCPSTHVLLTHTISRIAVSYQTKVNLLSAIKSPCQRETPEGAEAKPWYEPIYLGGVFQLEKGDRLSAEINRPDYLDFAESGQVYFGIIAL

Compound: C/C(=N\N=C(N)N)c1cc(NC(=O)CCCCCCCCC(=O)Nc2cc(/C(C)=N/N=C(N)N)cc(/C(C)=N/N=C(N)N)c2)cc(/C(C)=N/N=C(N)N)c1.Cl.Cl.Cl.Cl [CNI-1493]
reduced infarct volume [1]: 80%

Compound: CC(=O)CCCCn1c(=O)c2c(ncn2C)n(C)c1=O [Pentoxifylline]
left ventricular ejection fraction (LVEF) [5]: 38.7%

Compound: ENBREL
decrease in serum levels of biologically-active TNF-α [6]: 85%
patients who achieved the ARC20 ([7]; 12 weeks, placebo 13%): 73%
patients who met the PsARC ([7]; 12 weeks, placebo 23%): 87%
patients who achieved a 75% improvement in the PASI ([7]; 19 assessable patients per group, placebo 0, p=0.015): 26%
median target lesions (improvement) ([7]; placebo 0%): 50%
median PASI improvement ([7]; placebo 9%): 46%

Compound: REMICADE: humanized murine monoclonal antibody to TNF-α
patient's psoriasis [8]: dramatically cleared up

Further lines, with some results ahead:

IC50 [2]: > 50000 nM
Compound: Nc1nc(Cl)c2ncn(CCCCO)c2n1 [Comparison Compound 6]

IC50 [2]: > 20000 nM
Compound: Nc1nc(Cl)c2ncn(CCCC(=O)O)c2n1 [Comparison Compound 13]

IC50 [2]: > 20000 nM
Compound: CCOC(=O)CCCn1cnc2c(Cl)nc(N)nc21 [Comparison Compound 14]

IC50 [2]: 80 nM
Compound: Nc1nc(Cl)c2ncn(CCCCCB(O)O)c2n1 [LMP-420, 2-amino-6-chloro-9-[(5-dihydroxyboryl)-pentyl] purine]
IC50 [3]: ~1000 nM
effect on the production of nitric oxide as measured by the release of nitrate or nitrite [4]: no effect
expression of mRNA encoding for CCR1 (mRNA encoding for CCR1): dose-dependent inhibition
effect on CCR4 mRNA (CCR4 mRNA): no effect
effect on the mRNA for GAPDH (mRNA for GAPDH): no effect
